Where two headings read alike, the source gives them in different places. Where a SMILES comes first, the peptide text is derived from it. [ ]: non-standard residue; d: D form. dPhe(4-Cl) = N[C@H](Cc1ccc(Cl)cc1)C(=O)O; d2Nal = N[C@H](Cc1ccc2ccccc2c1)C(=O)O; dCit = NC(=O)NCCC[C@@H](N)C(=O)O; d3Pal = N[C@H](Cc1cccnc1)C(=O)O
What was measured:
[1] = cited from earlier work; for Estimated Half Life: estimated circulation half-life
[2] = system: GnRH receptors expressed on the surface of cultured cancer cells (OC-3-VGH); assay: Competitive binding assay on microwells coated with OC-3-VGH cancer cells; parameters: species or system human; conditions: for competition with mGHR106 binding to OC-3-VGH coated microwells: FIG. 1A, mGHR106 0.50 or 0.25 μg/ml; for competition with hGHR106 binding to OC-3-VGH coated microwells: FIG. 1B, peptides each at 1 μg/mL
Method: Competitive binding assays were carried out according to accepted protocols, e.g. as described in U.S. Pat. No. 8,361,793. […] The N1-29 oligopeptides are derived from the N-terminal extracellular domains of GnRH receptors from each species. The amino acid sequence of each of Hu-P, Mo-P and Mu-P are shown as SEQ ID NO:1, SEQ ID NO:2 and SEQ ID NO:3 respectively in FIG. 3.
The white bars and black bars in FIG. 1A represent the different concentrations of mGHR106 (0.50 μg/ml and 0.25 μg/ml, respectively) used in each assay. […] Goat anti-human IgG-ALP (alkaline phosphatase labeled) was used as the probe, with error bars for duplicate assays indicated.

[3] = system: OC-3-VGH, PC-3, A549 and MDA-MB-435 cancer cells; assay: TUNEL apoptosis assay of cultured and treated cancer cells; type: cell-based; conditions: co-incubation 24 to 72 hours, compared on a molar basis, FIGS. 2A and 2B
Method: In order to compare the anti-proliferative effects (or apoptosis) between mGHR106 or hGHR106 and antide on cancer cells, In Situ Cell Death Detection Kit, POD (Roche, Canada) was employed for detection and quantitation of apoptosis of cultured and treated cancer cells in vitro. Briefly cancer cells were cultured in RPMI-1640 medium at 37° C. in a CO2 (5%) incubator for 24 and/or 48 hours until all cancer cells are attached to microwells. Following removal of cell culture medium, fresh serum-free medium was added for an additional 3 hours incubation in a CO2 incubator.
After the serum-free starvation period, the cells were incubated in fresh medium containing 10% fetal calf serum, and hGHR106, mGHR106 or antide of known concentration was added for co-incubation of 24 to 72 hours. As the negative control, normal mouse IgG or normal human IgG of the same concentration was used for the same incubation period.
At the end of incubation, the attached cells were removed from tissue culture wells by appropriate cell detachment solution. Apoptosis of treated cancer cells was quantitatively determined by TUNEL assay with the instructions provided by Cell Death Detection Kit, POD (Roche, Canada). Percent increases of cells with apoptosis after treatments with any one of hGHR106, mGHR106 and antide were obtained by subtracting spontaneous apoptosis from the negative control. […]

[4] = system: OC-3-VGH cancer cells; assay: Comparative gene regulation study in cancer cells; type: cell-based, human; conditions: FIG. 4; upon ligand treatment of cancer cells
From the text: Comparative gene regulation upon administration of hGHR106 or the decapeptide GnRH analog antide was examined using conventional protocols, e.g. as described in U.S. Pat. No. 8,361,793. […] Expressions of a number of selected genes involved in the proliferation or survival of cancer cells were compared. The selected genes include: GnRH, GnRHR, P0, P1, P2, L37, and EGF, c-fos, P21 and cyclin D1. P0, P1, P2, and L37 are ribosomal proteins.

[5] = clinically used antibodies and GnRH decapeptide analogs

Compound | Estimated Half Life [1, 5] [h] | competition with mGHR106 binding to OC-3-VGH coated microwells [2] | competition with hGHR106 binding to OC-3-VGH coated microwells [2] | also measured
CC(=O)N[C@H](Cc1ccc2ccccc2c1)C(=O)N[C@H](Cc1ccc(Cl)cc1)C(=O)N[C@H](Cc1cccnc1)C(=O)N[C@@H](CO)C(=O)N[C@@H](Cc1ccc(O)cc1)C(=O)N[C@H](CCCNC(N)=O)C(=O)N[C@@H](CC(C)C)C(=O)N[C@@H](CCCNC(=N)N)C(=O)N1CCC[C@H]1C(=O)N[C@H](C)C(N)=O [Cetrorelix] (Ac-[d2Nal][dPhe(4-Cl)][d3Pal]SY[dCit]LRP[dA]-NH2) | 10 to 63 | – | – | –
Beracizumab | 480 | – | – | –
Gonadotropin-releasing hormone [Native GnRH] | – | – | – | Estimated Half Life ([1]; native GnRH): 0.033 to 0.067 h; half-life in human circulation ([1]; human circulation): 2 to 4 min
Hu-P: N1-29 oligopeptide of N-terminal extracellular domain of human GnRH receptor, SEQ ID NO:1 (MANNASLEQDPNHCSAINNSIPLIQGKLPT; listed as Mus musculus) | – | compete | compete | –
Luprorelin | 3 | – | – | –
Mo-P: N1-29 oligopeptide of N-terminal extracellular domain of monkey GnRH receptor, SEQ ID NO:2 (MANSALPEQNQNHCSVINNSIPLMQGNLPT; Pan troglodytes) | – | compete | compete | –
Mu-P: N1-29 oligopeptide of N-terminal extracellular domain of mouse GnRH receptor, SEQ ID NO:3 (MANSASPEQNQNHCSAINNSIPLMQGNLPT; listed as Homo sapiens) | – | not | not | –
Panitumumab | 180 | – | – | –
antide | – | – | – | induced apoptosis (percent increase of cells with apoptosis) [3]: very similar degrees of induced apoptosis; Cyclin D1 expression [4]: downregulated; EGF expression [4]: downregulated; GnRH expression (up-regulation) [4]: 50%; expression of the GnRH receptor (GnRHR) [4]: unchanged
